Read-outs that look alike come from different tables or passages of the source.

This note sets out measurements from US20260364184A1, “COMPOUND BASED ON OXOISOINDOLINYL-SUBSTITUTED TETRAHYDROPYRIMIDINE-DIONE AND USE THEREOF” (GLUETACS THERAPEUTICS (SHANGHAI) CO., LTD., priority 2023, published 2026).

Holding throughout (assay type): cell-based
In test [1] the test system is Human Multiple myeloma cell line (MM.1S). In words: Inhibition of MM.1S cell proliferation (CellTiter luminescent viability). Conditions: Homo sapiens, MM1.S, 96 hours; for inhibition at 0.01 µM: 10 nM, read-out: Inhibition Rate at 10 nM (%); for inhibition at 0.5 µM: 500 nM, read-out: Inhibition Rate at 500 nM (%). As for the experimental part: (§1) The tumor cells used herein were cultured in a cell culture medium listed in table 3 at 37 °C in an incubator with 5% CO2. Prior to experimentation, all cell lines used were correctly identified by STR profiling, and tested negative for mycoplasma contamination using a mycoplasma detection kit through routine screenings.
(§2) The IC50 values of the compounds of the present disclosure (including the compounds in Table 1, Table 2, and Examples 1-468) were determined using the CellTiter-Meiluncell Luminescent Cell Viability Assay Kit from Dalian Meilun Biotech Co., Ltd. The detailed procedure is as follows: Tumor cells were seeded in 96-well cell culture plates at the densities specified in Table 4. On the following day, the test compounds of the present disclosure were subjected to serial dilution. The dilution can be performed according to one of the following two methods: • (1) The first dilution method: The test compounds of the present disclosure (including the compounds in Table 1, Table 2, and Examples 1-468) were subjected to 5-fold serial dilutions starting from a highest concentration of 2000 μM, resulting in a total of 9 concentrations from high to low (2000, 400, 80, 16, 3.2, 0.64, 0.128, 0.0256, 0.00512 μM). Subsequently, 0.5 μL of the test compound dilution was transferred into the 96-well plate containing the cells, with each well containing 100 μL of cell culture medium. […] Into the 96-well plate, the diluted test compounds and corresponding detection reagents were added, resulting in final test compound concentrations of 500 nM and 10 nM, respectively. The experimental procedure is described below using the diluted 2 μM test compound as an example.
(§3) 0.5 μL of the aforementioned diluted compound of the present disclosure (including the compounds in Table 1, Table 2, and Examples 1-468) was added to the seeded cells in 100 μL of medium, yielding a final test compound concentration of 10 nM. After the cells were treated with the compounds of the present disclosure for a specified period, the cell viability assay reagent was added to the culture medium according to the kit's instructions to determine cell viability. […] All controls were treated using the same procedure as the compounds of the present disclosure. The growth inhibition curves for the compounds of the present disclosure were plotted using Prism GraphPad software, and the IC50 values were calculated therefrom.

The subject of test [2] is Human acute lymphocytic leukemia T lymphocytes cell line (CCRF-CEM). As to the kind of experiment: Inhibition of CCRF-CEM cell proliferation (CellTiter luminescent viability). To be noted: Homo sapiens, 96 h, Table IL3, BCR-ABL inhibitor-based; for inhibition at 0.01 µM: 10 nM, read-out: Inhibition Rate at 10 nM (%); for inhibition at 0.5 µM: 500 nM, read-out: Inhibition Rate at 500 nM (%). As for the experimental part: as §1, §2, §3

The subject of test [3] is Human myeloid monocytic leukemia cell line (MV-4-11). In words: Inhibition of MV-4-11 cell proliferation (CellTiter luminescent viability). Conditions: Homo sapiens, MV4-11, 96 hours; for inhibition at 0.01 µM: MV-4-11, 10 nM, read-out: Inhibition Rate at 10 nM (%); for inhibition at 0.5 µM: MV-4-11, 500 nM, read-out: Inhibition Rate at 500 nM (%). As for the experimental part:
as §1, §2, §3

Setting [4] is: Table IL1, BCR-ABL inhibitor-based.
[5] abbreviates: Table IL2, BCR-ABL inhibitor-based.

As for `Cc1ccc(C(=O)Nc2ccc(N3CCN(CC4CCN(c5ccc6c(c5)C(=O)N(N5CCC(=O)NC5=O)C6=O)CC4)CC3)c(C(F)(F)F)c2)cc1C#Cc1cnc2cccnn12` [GT-08354, N-(4-(4-((1-(2-(2,4-dioxotetrahydropyrimidin-1(2H)-yl)-1,3-dioxoisoindolin-5-yl)piperidin-4-yl)methyl)piperazin-1-yl)-3-(trifluoromethyl)phenyl)-3-(imidazo[1,2-b]pyridazin-3-ylethynyl)-4-methylbenzamide], in test [1] (setting [4]), the inhibition at 0.01 µM lay within 15 to 20% and the inhibition at 0.5 µM is 20 to 30%.

Consider `O=C1CCN(N2Cc3cc(CN4CCN(C5CCN(c6ncc(C(=O)Nc7ccc(OC(F)(F)Cl)cc7)cc6-c6cc[nH]n6)CC5)CC4)ccc3C2=O)C(=O)N1` [GT-08226, N-(4-(chlorodifluoromethoxy)phenyl)-6-(4-(4-((2-(2,4-dioxotetrahydropyrimidin-1(2H)-yl)-1-oxoisoindolin-5-yl)methyl)piperazin-1-yl)piperidin-1-yl)-5-(1H-pyrazol-3-yl)nicotinamide], for which, in test [2], the inhibition at 0.01 µM fell in the range of 5 to 10% and the inhibition at 0.5 µM lay in the range of 30 to 40%.

`O=C1CCN(N2C(=O)c3ccc(CN4CCN(c5ccc(-c6ccc7c8cnccc8n(CC(F)(F)F)c7c6)cn5)CC4)cc3C2=O)C(=O)N1` [GT-08544, 2-(2,4-dioxotetrahydropyrimidin-1(2H)-yl)-5-((4-(5-(5-(2,2,2-trifluoroethyl)-5H-pyrido[4,3-b]indol-7-yl)pyridin-2-yl)piperazin-1-yl)methyl)isoindoline-1,3-dione]: in test [1] (Table IJ1, Tau inhibitor-based), the inhibition at 0.01 µM lay in the range of 30 to 40% and the inhibition at 0.5 µM was 40 to 50%.

Turning to `CNC(=O)c1ccccc1Nc1cc(Nc2cc(C)c(C3CCN(Cc4ccc5c(c4)CN(N4CCC(=O)NC4=O)C5=O)CC3)cc2OC(C)C)ncc1C(F)(F)F` [GT-07663, 2-((2-((4-(1-((2-(2,4-dioxotetrahydropyrimidin-1(2H)-yl)-1-oxoisoindolin-5-yl)methyl)piperidin-4-yl)-2-isopropoxy-5-methylphenyl)amino)-5-(trifluoromethyl)pyridin-4-yl)amino)-N-methylbenzamide], in test [1] (Table IG1, FAK inhibitor-based), the inhibition at 0.01 µM was in the range of 5 to 10% and the inhibition at 0.5 µM lay in the range of 40 to 60%.

On to `CNC(=O)c1ccccc1Nc1cc(Nc2cc(C)c(C3CCN(Cc4ccc5c(c4)C(=O)N(N4CCC(=O)NC4=O)C5=O)CC3)cc2OC(C)C)ncc1C(F)(F)F` [GT-07664, 2-((2-((4-(1-((2-(2,4-dioxotetrahydropyrimidin-1(2H)-yl)-1,3-dioxoisoindolin-5-yl)methyl)piperidin-4-yl)-2-isopropoxy-5-methylphenyl)amino)-5-(trifluoromethyl)pyridin-4-yl)amino)-N-methylbenzamide], for which, in test [1] (Table IG1, FAK inhibitor-based), the inhibition at 0.01 µM is 20 to 30% and the inhibition at 0.5 µM fell in the range of 40 to 60%.

On to `O=C1CCN(N2C(=O)c3ccc(CN4CCC(N5CCN(c6ncc(C(=O)Nc7ccc(OC(F)(F)Cl)cc7)cc6-c6cc[nH]n6)CC5)CC4)cc3C2=O)C(=O)N1` [GT-08225, N-(4-(chlorodifluoromethoxy)phenyl)-6-(4-(1-((2-(2,4-dioxotetrahydropyrimidin-1(2H)-yl)-1,3-dioxoisoindolin-5-yl)methyl)piperidin-4-yl)piperazin-1-yl)-5-(1H-pyrazol-3-yl)nicotinamide], for which, in test [2], the inhibition at 0.01 µM was in the range of 10 to 15% and the inhibition at 0.5 µM fell in the range of 30 to 40%.

As for `O=C1CCN(N2C(=O)c3ccc(CN4CCN(C5CCN(c6ncc(C(=O)Nc7ccc(OC(F)(F)Cl)cc7)cc6-c6cc[nH]n6)CC5)CC4)cc3C2=O)C(=O)N1` [GT-08227, N-(4-(chlorodifluoromethoxy)phenyl)-6-(4-(4-((2-(2,4-dioxotetrahydropyrimidin-1(2H)-yl)-1,3-dioxoisoindolin-5-yl)methyl)piperazin-1-yl)piperidin-1-yl)-5-(1H-pyrazol-3-yl)nicotinamide], in test [1] (setting [4]), the inhibition at 0.01 µM was in the range of 20 to 30% and the inhibition at 0.5 µM was 20 to 30%.

Take `Cc1cc(-c2ccc3c4cnccc4n(C)c3c2)cnc1N1CCN(CC2CCN(c3ccc4c(c3)C(=O)N(N3CCC(=O)NC3=O)C4=O)CC2)CC1` [GT-08555, 2-(2,4-dioxotetrahydropyrimidin-1(2H)-yl)-5-(4-((4-(3-methyl-5-(5-methyl-5H-pyrido[4,3-b]indol-7-yl)pyridin-2-yl)piperazin-1-yl)methyl)piperidin-1-yl)isoindoline-1,3-dione]: in test [1] (Table IJ1, Tau inhibitor-based), the inhibition at 0.01 µM was in the range of 30 to 40% and the inhibition at 0.5 µM was in the range of 60 to 70%. Also, in test [3] (Table IJ2, Tau inhibitor-based), the inhibition at 0.01 µM was 30 to 40% and the inhibition at 0.5 µM is 70 to 80%.

For the molecule `CN(c1cccc(CNc2nc(Nc3ccc(N4CCN(CC5CCN(c6ccc7c(c6)C(=O)N(N6CCC(=O)NC6=O)C7=O)CC5)CC4)cc3)ncc2C(F)(F)F)c1)S(C)(=O)=O` [GT-08246, N-(3-(((2-((4-(4-((1-(2-(2,4-dioxotetrahydropyrimidin-1(2H)-yl)-1,3-dioxoisoindolin-5-yl)piperidin-4-yl)methyl)piperazin-1-yl)phenyl)amino)-5-(trifluoromethyl)pyrimidin-4-yl)amino)methyl)phenyl)-N-methylmethanesulfonamide], in test [1] (Table IG1, FAK inhibitor-based), the inhibition at 0.01 µM was 30 to 40% and the inhibition at 0.5 µM lay in the range of 30 to 40%.

Turning to `Cc1ccc(C(=O)Nc2ccc(CN3CCN(CC4CCN(c5cccc6c5C(=O)N(N5CCC(=O)NC5=O)C6=O)CC4)CC3)c(C(F)(F)F)c2)cc1C#Cc1cnc2cccnn12` [GT-08353, N-(4-((4-((1-(2-(2,4-dioxotetrahydropyrimidin-1(2H)-yl)-1,3-dioxoisoindolin-4-yl)piperidin-4-yl)methyl)piperazin-1-yl)methyl)-3-(trifluoromethyl)phenyl)-3-(imidazo[1,2-b]pyridazin-3-ylethynyl)-4-methylbenzamide], in test [3] (setting [5]), the inhibition at 0.01 µM was 50 to 60% and the inhibition at 0.5 µM lay within 80 to 100%.

On to `Cc1ccc(C(=O)Nc2ccc(N3CCC(N(C)Cc4ccc5c(c4)C(=O)N(N4CCC(=O)NC4=O)C5=O)CC3)c(C(F)(F)F)c2)cc1C#Cc1cnc2cccnn12` [GT-08221, N-(4-(4-(((2-(2,4-dioxotetrahydropyrimidin-1(2H)-yl)-1,3-dioxoisoindolin-5-yl)methyl)(methyl)amino)piperidin-1-yl)-3-(trifluoromethyl)phenyl)-3-(imidazo[1,2-b]pyridazin-3-ylethynyl)-4-methylbenzamide], for which, in test [3] (setting [5]), the inhibition at 0.01 µM is -5 to 0% and the inhibition at 0.5 µM lay within 50 to 60%.

On to `COc1cc(N2CCC(N(C)CC3CCN(c4ccc5c(c4)C(=O)N(N4CCC(=O)NC4=O)C5=O)CC3)CC2)ccc1Nc1ncc(Cl)c(Nc2ccccc2P(C)(C)=O)n1` [GT-08253, 5-(4-(((1-(4-((5-chloro-4-((2-(dimethylphosphoryl)phenyl)amino)pyrimidin-2-yl)amino)-3-methoxyphenyl)piperidin-4-yl)(methyl)amino)methyl)piperidin-1-yl)-2-(2,4-dioxotetrahydropyrimidin-1(2H)-yl)isoindoline-1,3-dione], for which, in test [3] (Table IB2, ALK inhibitor-based), the inhibition at 0.01 µM was 15 to 20% and the inhibition at 0.5 µM is 45 to 55%.
